Reference: ChEMBL document CHEMBL1201862, “PubChem BioAssay data set” (2004)
The source made the active and inactive calls.

How the values were obtained:
Leucine aminopeptidase = biological target: T1, Leucine aminopeptidase (Plasmodium falciparum 3D7, UniProt Q8IL11); assay: P. falciparum M17LAP inhibitors, primary screen, biochemical, fluorogenic H-Leu-NHMec substrate, 1536-well (AID 1619); assay type: functional
T1 sequence (Q8IL11 whole entry): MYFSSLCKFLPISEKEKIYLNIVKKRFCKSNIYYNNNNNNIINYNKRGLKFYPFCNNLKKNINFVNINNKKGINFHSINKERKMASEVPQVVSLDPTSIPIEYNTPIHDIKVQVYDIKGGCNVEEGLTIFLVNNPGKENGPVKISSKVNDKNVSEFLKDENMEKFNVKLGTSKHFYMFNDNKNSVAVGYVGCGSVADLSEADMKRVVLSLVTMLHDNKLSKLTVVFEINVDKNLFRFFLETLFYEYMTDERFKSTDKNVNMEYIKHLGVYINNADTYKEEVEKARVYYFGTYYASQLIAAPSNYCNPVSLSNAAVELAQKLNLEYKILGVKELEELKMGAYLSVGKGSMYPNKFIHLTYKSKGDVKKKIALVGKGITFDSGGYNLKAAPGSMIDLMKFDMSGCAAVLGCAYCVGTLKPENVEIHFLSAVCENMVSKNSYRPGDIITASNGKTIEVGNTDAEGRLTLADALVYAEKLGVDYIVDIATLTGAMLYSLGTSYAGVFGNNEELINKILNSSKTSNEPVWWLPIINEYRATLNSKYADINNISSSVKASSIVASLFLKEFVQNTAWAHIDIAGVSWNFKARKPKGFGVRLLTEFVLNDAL

Cytochrome P450 2C19 = Cytochrome P450 2C19 (Homo sapiens, UniProt P33261); assay: Cytochrome panel assay with activity outcomes. Panel member name: p450-cyp2c19 Compounds with AC50 equal or less than 10 uM are considered active; assay type: functional; details: read-out: AC50
[1] = biological target: T2, Neuropeptide Y receptor type 1 (Homo sapiens, UniProt P25929); assay: NPY-Y1 receptor antagonist potency, dose response, cell-based (AID 1277); assay type: functional
T2 sequence (P25929 whole entry): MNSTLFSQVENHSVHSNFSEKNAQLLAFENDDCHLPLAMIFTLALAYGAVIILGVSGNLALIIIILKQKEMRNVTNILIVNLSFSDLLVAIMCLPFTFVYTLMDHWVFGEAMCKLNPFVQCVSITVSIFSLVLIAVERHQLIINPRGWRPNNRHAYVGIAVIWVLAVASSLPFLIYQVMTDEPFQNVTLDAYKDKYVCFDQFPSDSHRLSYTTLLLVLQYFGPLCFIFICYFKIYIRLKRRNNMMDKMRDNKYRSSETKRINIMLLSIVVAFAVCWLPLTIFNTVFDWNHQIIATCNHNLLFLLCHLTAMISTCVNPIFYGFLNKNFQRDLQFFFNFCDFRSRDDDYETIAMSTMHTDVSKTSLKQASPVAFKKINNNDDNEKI

[2] = biological target: T3, Neuropeptide Y receptor type 2 (Homo sapiens, UniProt P49146); assay: NPY-Y2 antagonist potency, selectivity check, dose response, counter-screen for NPY-Y1 antagonist project, cell-based (AID 1278); assay type: functional
T3 sequence (P49146 whole entry): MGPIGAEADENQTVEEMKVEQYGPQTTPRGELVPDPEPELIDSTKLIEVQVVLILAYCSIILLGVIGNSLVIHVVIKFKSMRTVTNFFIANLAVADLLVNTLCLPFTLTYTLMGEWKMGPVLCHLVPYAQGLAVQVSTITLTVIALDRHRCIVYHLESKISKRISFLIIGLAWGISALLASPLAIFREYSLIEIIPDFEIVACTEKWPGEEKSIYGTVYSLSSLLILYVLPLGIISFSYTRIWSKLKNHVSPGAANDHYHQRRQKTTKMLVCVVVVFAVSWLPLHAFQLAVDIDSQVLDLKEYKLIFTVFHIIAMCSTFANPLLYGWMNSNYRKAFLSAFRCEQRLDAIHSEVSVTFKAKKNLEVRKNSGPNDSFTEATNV

[3] = biological target: Luciferin 4-monooxygenase (Photinus pyralis, UniProt P08659); assay: Counter Screen for Luciferase-based Assay Positives. [Related pubchem assays: 620, 618, 411 ]
HT-1080 = assay: cytotoxicity in HT1080 fibrosarcoma cells, cell-based, fluorescence readout (AID 620); assay type: functional; details: Homo sapiens
[4] = cytotoxicity in HPDE-C7 cells, cell-based, fluorescence, HTS (AID 430); assay type: functional; details: Homo sapiens
[5] = cytotoxicity in KRAS-transformed pancreatic duct cells, primary screen, cell-based, fluorescence, HTS (AID 431); assay type: functional; details: Homo sapiens;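 also: cell line used: HPDE-C7K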
Cytochrome P450 1A2 = biological target: T4, Cytochrome P450 1A2 (Homo sapiens, UniProt P05177);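 also: PubChem cytochrome P450 panel assay, CYP1A2 panel member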
T4 sequence (P05177 whole entry): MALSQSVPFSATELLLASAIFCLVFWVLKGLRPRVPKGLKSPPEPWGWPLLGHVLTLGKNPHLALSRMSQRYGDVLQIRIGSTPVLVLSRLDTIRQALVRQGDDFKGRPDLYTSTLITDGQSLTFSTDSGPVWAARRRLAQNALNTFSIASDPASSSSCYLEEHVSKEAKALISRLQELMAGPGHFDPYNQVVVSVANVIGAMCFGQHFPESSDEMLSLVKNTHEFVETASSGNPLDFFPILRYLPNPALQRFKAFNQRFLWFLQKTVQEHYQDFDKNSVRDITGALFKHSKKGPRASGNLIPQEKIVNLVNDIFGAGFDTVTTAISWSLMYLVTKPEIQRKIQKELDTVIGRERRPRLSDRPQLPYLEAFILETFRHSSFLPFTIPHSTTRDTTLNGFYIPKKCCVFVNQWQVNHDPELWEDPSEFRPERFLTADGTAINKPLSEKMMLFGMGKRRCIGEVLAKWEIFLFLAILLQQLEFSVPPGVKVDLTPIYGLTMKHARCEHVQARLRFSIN

Streptococcus = assay: Group A Streptococcus viability loss, dose response, counter-screen for streptokinase expression inhibitor project, luminescence, BacTiterGlo (AID 1915); assay type: functional, organism-based;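 also: potency for reduction of bacterial viability or growth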
Streptokinase A = biological target: T5, Streptokinase A (Streptococcus pyogenes serotype M1, UniProt P10520); assay: S. pyogenes streptokinase expression inhibitors, potency, dose response, plasminogen activation absorbance, OD405 (AID 1914); assay type: functional, Streptococcus pyogenes M1 GAS;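 also: secreted streptokinase activity via plasminogen activation per viability signal from cell pellet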
T5 sequence (P10520 whole entry): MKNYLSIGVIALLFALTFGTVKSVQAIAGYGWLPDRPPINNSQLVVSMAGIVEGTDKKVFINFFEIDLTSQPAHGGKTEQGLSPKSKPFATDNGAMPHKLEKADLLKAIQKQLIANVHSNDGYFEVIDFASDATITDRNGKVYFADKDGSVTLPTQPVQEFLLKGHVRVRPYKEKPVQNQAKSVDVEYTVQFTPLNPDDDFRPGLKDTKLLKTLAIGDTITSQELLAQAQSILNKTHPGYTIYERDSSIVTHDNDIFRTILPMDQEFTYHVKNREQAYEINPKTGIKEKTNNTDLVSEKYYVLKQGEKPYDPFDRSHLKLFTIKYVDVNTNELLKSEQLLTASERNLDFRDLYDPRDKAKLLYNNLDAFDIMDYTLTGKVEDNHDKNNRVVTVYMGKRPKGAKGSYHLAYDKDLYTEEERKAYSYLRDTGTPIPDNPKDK

[6] = tested on: Streptococcus sp. 'group A'; assay: growth inhibition of control SK(-) GAS strain, dose response, counter-screen for streptokinase expression inhibitor project, luminescence, kanamycin, BacTiterGlo, confirmation (AID 1900); assay type: functional, organism-based
[7] = M. tuberculosis H37Rv growth inhibitors, H37Rv strain (AID 1626); assay type: functional
[8] = HEK293 cell cytotoxicity, dose response, cytotoxicity control, plate reader, cherry-picked samples (AID 743446); assay type: functional, cell-based
[9] = MC4R antagonists, dose response, counter-screen for LGR2 antagonist project, cell-based, plate reader, cherry pick (AID 743444); assay type: functional;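 also: transfected HEK 293 cells stimulated with alpha-MSH peptide; potency of inhibitors of the alpha-MSH evoked signal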
[10] = HepG2 cell cytotoxicity, dose response, cytotoxicity control, plate reader, cherry-pick, antagonist series (AID 743416); assay type: functional, cell-based
[11] = A549 cell cytotoxicity, dose response, cytotoxicity control, plate reader, cherry-pick, antagonist series (AID 743412); assay type: functional, cell-based
[12] = LGR2 antagonists, dose response, cell-based, HEK293, CRE-luciferase reporter, cherry pick, set 2 (AID 743343); assay type: functional;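 also: transfected cells were stimulated with diluted bursicon conditioned medium after compound addition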
[13] = biological target: T6, Dual specificity protein phosphatase 6 (Rattus norvegicus, UniProt Q64346); assay: MKP-3 phosphatase inhibitors, primary screen, biochemical, rat enzyme, in vitro (AID 425)
T6 sequence (Q64346 whole entry): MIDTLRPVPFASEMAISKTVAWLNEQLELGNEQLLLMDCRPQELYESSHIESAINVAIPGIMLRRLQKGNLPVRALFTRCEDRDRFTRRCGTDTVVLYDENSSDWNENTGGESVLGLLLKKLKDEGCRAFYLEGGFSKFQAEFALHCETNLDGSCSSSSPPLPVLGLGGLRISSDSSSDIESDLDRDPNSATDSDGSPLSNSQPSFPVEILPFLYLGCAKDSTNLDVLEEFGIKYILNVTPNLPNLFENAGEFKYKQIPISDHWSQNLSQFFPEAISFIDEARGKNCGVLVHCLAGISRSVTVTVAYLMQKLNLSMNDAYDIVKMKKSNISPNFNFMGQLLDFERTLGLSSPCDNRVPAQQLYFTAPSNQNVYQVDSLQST

[14] = NIH-3T3 fibroblast cytotoxicity, dose response, cytotoxicity control, cell-based, fluorescence, Alamar Blue, secondary assay (AID 2327); assay type: functional;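 also: NIH-3T3 mouse fibroblasts cultured with fluconazole at 8 µg/mL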
[15] = biological target: T7, Mannose-6-phosphate isomerase (Homo sapiens, UniProt P34949); assay: inhibitors of human PMI, primary screen, biochemical, fluorescence intensity, coupled assay (AID 1209)
T7 sequence (P34949 whole entry): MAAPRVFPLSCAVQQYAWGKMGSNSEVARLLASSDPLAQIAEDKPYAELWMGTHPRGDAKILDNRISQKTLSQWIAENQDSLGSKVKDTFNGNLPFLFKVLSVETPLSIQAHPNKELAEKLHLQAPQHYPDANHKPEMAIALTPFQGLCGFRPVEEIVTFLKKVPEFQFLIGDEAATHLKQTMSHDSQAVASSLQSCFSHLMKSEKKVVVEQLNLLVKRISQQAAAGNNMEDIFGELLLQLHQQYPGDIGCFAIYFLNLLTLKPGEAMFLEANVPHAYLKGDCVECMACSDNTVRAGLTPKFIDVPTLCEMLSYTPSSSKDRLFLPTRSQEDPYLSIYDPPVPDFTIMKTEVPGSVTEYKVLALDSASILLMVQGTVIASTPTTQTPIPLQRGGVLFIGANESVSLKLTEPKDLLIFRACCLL

[16] = C. albicans growth with fluconazole, confirmation, fluorescence, retest (AID 2467); assay type: functional, cell-based
[17] = biological target: T7, Mannose-6-phosphate isomerase; assay: human PMI inhibitors, high substrate, primary screen, biochemical, fluorescence intensity, high mannose 6-phosphate (AID 1220)
[18] = Luminescence Cell-Based Dose Retest to Confirm Inhibitors of Cancer Stem Cells. [Related pubchem assays (depositor defined):AID2717, AID2721]; assay type: functional; details: Homo sapiens

Luciferin 4-monooxygenase, sequence (P08659 whole entry): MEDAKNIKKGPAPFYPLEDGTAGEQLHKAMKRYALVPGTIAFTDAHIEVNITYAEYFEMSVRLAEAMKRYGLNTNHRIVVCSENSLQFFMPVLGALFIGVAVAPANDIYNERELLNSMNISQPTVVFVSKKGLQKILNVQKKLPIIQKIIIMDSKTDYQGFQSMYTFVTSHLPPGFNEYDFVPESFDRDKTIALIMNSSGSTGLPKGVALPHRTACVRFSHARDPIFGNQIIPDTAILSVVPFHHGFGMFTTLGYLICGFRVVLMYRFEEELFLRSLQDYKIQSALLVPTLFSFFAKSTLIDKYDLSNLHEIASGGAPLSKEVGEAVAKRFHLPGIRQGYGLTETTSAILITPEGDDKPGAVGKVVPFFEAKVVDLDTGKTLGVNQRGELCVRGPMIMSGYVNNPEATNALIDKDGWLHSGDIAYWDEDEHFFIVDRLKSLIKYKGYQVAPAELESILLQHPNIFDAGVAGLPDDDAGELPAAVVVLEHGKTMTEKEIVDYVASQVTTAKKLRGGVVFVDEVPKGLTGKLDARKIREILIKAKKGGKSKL
Cytochrome P450 2C19, sequence (P33261 whole entry): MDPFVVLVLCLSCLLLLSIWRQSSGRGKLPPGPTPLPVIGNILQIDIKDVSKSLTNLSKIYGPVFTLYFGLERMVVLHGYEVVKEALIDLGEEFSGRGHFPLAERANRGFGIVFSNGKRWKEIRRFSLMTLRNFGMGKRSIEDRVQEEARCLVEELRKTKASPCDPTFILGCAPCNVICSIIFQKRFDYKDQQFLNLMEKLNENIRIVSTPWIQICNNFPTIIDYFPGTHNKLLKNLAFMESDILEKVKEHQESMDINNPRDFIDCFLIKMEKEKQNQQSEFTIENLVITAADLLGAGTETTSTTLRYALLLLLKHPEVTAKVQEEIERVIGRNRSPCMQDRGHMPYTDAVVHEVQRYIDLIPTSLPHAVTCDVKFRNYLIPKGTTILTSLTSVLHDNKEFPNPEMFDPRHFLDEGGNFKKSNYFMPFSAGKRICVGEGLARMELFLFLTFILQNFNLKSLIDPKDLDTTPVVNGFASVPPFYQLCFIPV

COC(=O)c1ccc(NC(=O)C2CCCCC2C(=O)O)cc1 (centres undefined)
IC50 (Leucine aminopeptidase): 13.5 µM (active) | AC50 (Cytochrome P450 2C19): 0.0398 µM (inconclusive)

Cc1cc2cc(C)c(NCCNC(=O)c3cccc(F)c3)nc2cc1C
IC50 [1]: 3.39 µM (active) | IC50 [2]: 4.44 µM (active)

COC(=O)c1ccc(-c2nc(-c3cccs3)no2)cc1
EC50 [3]: 0.76 µM (active) | EC50 (HT-1080): > 50 µM (not active)

O=C1CC(c2ccc3c(c2)OCO3)c2cc3c(cc2N1)OCCO3 (centres undefined)
EC50 [4]: > 20 µM (not active) | EC50 [5]: > 20 µM (not active)

O=C(c1cc(-c2cccc(O)c2)on1)N1CCCCC1
EC50 [3]: 0.64 µM (active) | EC50 (HT-1080): > 50 µM (not active)

COc1ccc([N+](=O)[O-])cc1N(CC(O)CN(CC(C)C)CC(C)C)S(=O)(=O)c1ccccc1 (centres undefined)
IC50 [1]: > 35 µM (not active) | AC50 (Cytochrome P450 1A2): 11.2 µM (inconclusive) | IC50 [2]: > 35 µM (not active)

Cc1sc(NC(=O)C2C3C=CC(C3)C2C(=O)O)c(C(N)=O)c1-c1ccc(C(C)C)cc1 (centres undefined)
EC50 (Streptococcus): > 150 µM (not active) | IC50 (Leucine aminopeptidase): 4.99 µM (active) | EC50 (Streptokinase A): 32.2 µM (active) | EC50 [6]: 32.1 µM (active)

Cc1cc(=O)oc2ccc(OC(=O)CC(C)C)cc12
IC50 [7]: > 100 µM (active)

O=S(=O)(CCSc1nc2ccccc2o1)c1nc2ccccc2s1
EC50 [4]: 4.88 µM (active) | AC50 [8]: 6.8 µM (active) | AC50 [9]: 1.8 µM (active) | EC50 [5]: 5.33 µM (active) | AC50 [10]: 5.74 µM (active) | AC50 [11]: 44.4 µM (active) | AC50 [12]: 2.43 µM (active)

COc1ccc(NC2(C#N)CCCCC2)cc1
IC50 [7]: > 100 µM (active)

O=C(CN(Cc1ccco1)C(=O)CNS(=O)(=O)c1ccc(F)cc1)NCCc1ccccc1
IC50 [13]: > 100 µM (not active)

COc1ccc(N2CCN(C(c3cccc(OC)c3OC)c3nnnn3C3CCCC3)CC2)cc1 (centres undefined)
IC50 [1]: > 35 µM (not active) | IC50 [2]: > 35 µM (not active)

N=C1/C(=C\c2ccc(SCc3ccccc3)o2)C(=O)N=C2SC=NN12
EC50 [14]: > 150 µM (inactive) | IC50 [15]: > 50 µM (not active) | EC50 [16]: 5.72 µM (active)

COc1ccc2c(c1)C(C)=CC(C)(C)N2C(=O)Nc1ccccc1
IC50 [17]: > 50 µM (not active) | IC50 [15]: > 50 µM (not active)

c1ccc(-c2cc3c(NCC4COc5ccccc5O4)ncnc3s2)cc1 (centres undefined)
IC50 [7]: > 100 µM (active) | EC50 (Streptococcus): 21.7 µM (active) | AC50 [18]: 3.96 µM (active) | EC50 (Streptokinase A): 3.29 µM (active) | EC50 [6]: 3 µM (active)
